Assays:
TDO2 enzyme = molecular target: T1, TDO2 enzyme (Homo sapiens, UniProt P48775); assay: TDO2 enzyme inhibition assay (hTDO2 assay kit, NFK-green); conditions: TDO2 enzyme 50 nM, tryptophan 200 μM, top concentration 30 μM; read-out: TDO2 Biochemical assay IC50
T1 construct: purchased Netherlands Translational Research Center B.V. NTRC-hTDO-1K
Experimental: The effect of compounds on TDO2 enzymatic activity was assess by use of an hTDO2 assay kit (Netherlands Translational Research Center B.V., Cat #NTRC-hTDO-1K). TDO2 enzyme and tryptophan substrate are diluted in assay buffer. Compounds are tested at 8 consecutive 3-fold dilutions starting from 30 μM. 267 nL of compound is added per well of a 384-well plate followed by addition of 10 μL of assay buffer. TDO2 enzyme is added at a final concentration of 50 nM and pre-incubated for 60 min at room temperature in the dark. Tryptophan substrate solution is then added at final concentration of 200 μM to all wells and the plate incubated for 15 min at RT in the dark. Finally NFK-green reagent is added at ⅕ of total reaction volume and incubated for 4 h at RT in the dark. After incubation fluorescence is measured at Ex405 nm-Em535 nm using EnVision plate reader.
(§1) IC50 values are determined using GraphPad Prism software 5.04 for Windows by plotting percent of inhibition against log 10 concentrations of compounds using a four-parametric sigmoidal curve with a variable slope.

SK-OV-3 cells = assay: Effect of compounds on tryptophan catabolism in SK-OV-3 cell line (inhibition of kynurenine production, LC-MS/MS); assay type: cell-based; conditions: Homo sapiens, SK-OV-3, 24 h, SK-OV-3 cell line, 24 h incubation, kynurenine in supernatant by LC-MS/MS; read-out: IC50 Ranges (ic50 values for inhibition of Kynurenine production)
Summary of the method: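 Cells seeded overnight in McCoy's 5A/10% FBS, then switched to DMEM F-12 with 6 mg/mL L-tryptophan; compounds added at 8 3-fold dilutions from 30 μM, in duplicate, 24 h at 37 °C. Supernatant kynurenine measured by LC-MS/MS; ATP-based viability run in parallel; IC50 from % inhibition of Kyn production.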

IDO1 enzyme = molecular target: T2, IDO1 enzyme (Homo sapiens, UniProt P14902); assay: IDO1 enzyme inhibition assay (hIDO assay kit, NFK-green); conditions: IDO1 enzyme 25 nM, tryptophan 100 μM, top concentration 30 μM; read-out: IDO1 Biochemical assay IC50
T2 construct: purchased Netherlands Translational Research Center B.V. NTRC-hIDO-1K
Experimental: The effect of compounds on IDO1 enzymatic activity was assessed by use of a hIDO assay kit (Netherlands Translational Research Center B.V., Cat #NTRC-hIDO-1K). IDO1 enzyme and tryptophan substrate are diluted in assay buffer. Compounds are tested at 8 consecutive 3-fold dilutions starting from 30 μM. 267 nL of compound is added per well of a 384-well plate followed by addition of 10 μL of assay buffer. IDO1 enzyme is added at a final concentration of 25 nM and pre-incubated for 30 min at room temperature in the dark. Tryptophan substrate solution is then added at final concentration of 100 μM to all wells and the plate incubated for 60 min at RT in the dark. Finally NFK-green reagent is added at ⅕ of total reaction volume and incubated for 4 h at RT in the dark. After incubation fluorescence is measured at Ex405 nm-Em535 nm using EnVision plate reader.
as §1

T1 sequence (P48775 whole entry): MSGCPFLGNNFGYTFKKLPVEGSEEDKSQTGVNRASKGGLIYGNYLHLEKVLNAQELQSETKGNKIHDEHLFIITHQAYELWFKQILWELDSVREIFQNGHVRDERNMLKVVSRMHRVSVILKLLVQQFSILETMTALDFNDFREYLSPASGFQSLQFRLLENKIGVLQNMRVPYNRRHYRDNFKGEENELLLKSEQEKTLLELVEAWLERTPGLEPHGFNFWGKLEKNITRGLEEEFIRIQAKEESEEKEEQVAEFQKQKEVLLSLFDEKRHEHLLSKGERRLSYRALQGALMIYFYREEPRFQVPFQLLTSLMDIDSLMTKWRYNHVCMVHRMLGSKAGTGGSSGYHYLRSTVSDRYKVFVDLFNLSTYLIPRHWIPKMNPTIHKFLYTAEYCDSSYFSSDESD
T2 sequence (P14902 whole entry): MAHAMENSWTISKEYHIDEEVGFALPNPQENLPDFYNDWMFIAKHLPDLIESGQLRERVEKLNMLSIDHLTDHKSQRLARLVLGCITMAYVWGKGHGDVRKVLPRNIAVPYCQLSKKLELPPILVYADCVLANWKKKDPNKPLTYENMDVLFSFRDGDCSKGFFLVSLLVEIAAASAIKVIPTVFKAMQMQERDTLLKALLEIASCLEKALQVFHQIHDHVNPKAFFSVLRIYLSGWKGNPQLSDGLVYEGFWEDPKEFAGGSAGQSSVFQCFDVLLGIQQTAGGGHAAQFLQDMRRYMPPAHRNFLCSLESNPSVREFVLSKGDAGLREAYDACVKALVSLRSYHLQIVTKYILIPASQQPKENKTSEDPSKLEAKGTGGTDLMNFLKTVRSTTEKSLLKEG

Row | SMILES | IC50 (TDO2 enzyme) [nM] | IC50 (SK-OV-3 cells) [nM] | IC50 (IDO1 enzyme) [nM]
1 | Cc1ccc(C(C)N(C(=O)Nc2ccc(Cl)cc2)C2CCCC2)o1 (racemic) [Compound 185, 3-(4-chlorophenyl)-1-cyclopentyl-1-[1-(5-methyl-2-furyl)ethyl]urea] | > 30000 | < 100 | –
2 | CCc1ccc(NC(=O)N(Cc2ccccn2)C2CCCCC2)cc1 [Compound 21, 1-cyclohexyl-3-(4-ethylphenyl)-1-(2-pyridylmethyl)urea] | > 30000 | 1000 to 5000 | –
3 | O=C(Nc1ccccc1)N(Cc1ccncc1)C1CCCC1 [Compound 74, 1-cyclopentyl-3-phenyl-1-(4-pyridylmethyl)urea] | > 30000 | > 5000 | –
4 | Cc1ccc(CN(C(=O)Nc2ccc(Cl)nc2)C2CCCC2)o1 [Compound 92, 3-(6-chloro-3-pyridyl)-1-cyclopentyl-1-[(5-methyl-2-furyl)methyl]urea] | > 30000 | < 100 | –
5 | Cc1ccc(CN(C(=O)Nc2ccc(F)c(O)c2)C2CCCC2)o1 [Compound 104, 1-cyclopentyl-3-(4-fluoro-3-hydroxy-phenyl)-1-[(5-methyl-2-furyl)methyl]urea] | > 30000 | > 5000 | –
6 | Cc1ccc(CN(C(=O)Nc2ccc(-c3cnoc3)cc2)C2CCCC2)o1 [Compound 105, 1-cyclopentyl-3-(4-isoxazol-4-ylphenyl)-1-[(5-methyl-2-furyl)methyl]urea] | > 30000 | 100 to 500 | –
7 | Cc1ccc(CN(C(=O)Nc2ccc(C#CCN)cc2)C2CCCC2)o1 [Compound 110] | > 30000 | 100 to 500 | –
8 | Cc1ccc(CN(C(=O)Nc2ccc(N3CCOCC3)cc2)C2CCCC2)o1 [Compound 123, 1-cyclopentyl-1-[(5-methyl-2-furyl)methyl]-3-(4-morpholinophenyl)urea] | > 30000 | > 5000 | –
9 | O=C(Nc1ccc(Cl)cc1)N(Cc1cc2ccccc2o1)C1CCCC1 [Compound 130, 1-(benzofuran-2-ylmethyl)-3-(4-chlorophenyl)-1-cyclopentyl-urea] | > 30000 | < 100 | –
10 | N#Cc1ccc(NC(=O)N(Cc2ccc3ncsc3c2)C2CCC2)cc1 [Compound 213, 1-(1,3-benzothiazol-6-ylmethyl)-3-(4-cyanophenyl)-1-cyclobutyl-urea] | – | < 100 | > 30000
11 | Cc1ccc(CN(C(=O)Nc2ccc(C#N)cc2)c2ccnn2C)o1 [Compound 215, 3-(4-cyanophenyl)-1-[(5-methyl-2-furyl)methyl]-1-(2-methylpyrazol-3-yl)urea] | – | > 5000 | > 30000
12 | Cc1ccc(CN(C(=O)Nc2ccc(Cl)cc2)c2cnoc2)o1 [Compound 305, 3-(4-chlorophenyl)-1-isoxazol-4-yl-1-[(5-methyl-2-furyl)methyl]urea] | – | < 100 | –
13 | Cc1ccc(CN(C(=O)N(C)c2ccc(C#CCO)cc2)C2CCC2)o1 [Compound 306, 1-cyclobutyl-3-[4-(3-hydroxyprop-1-ynyl)phenyl]-3-methyl-1-[(5-methyl-2-furyl)methyl]urea] | – | 1000 to 5000 | –
14 | Cc1ccc(CN(C(=O)Nc2ccc3c(c2)CNC3=O)C2CCCC2)o1 [Compound 307] | – | > 5000 | –
15 | Cc1nocc1N(Cc1cccc(C(F)(F)F)c1)C(=O)Nc1ccc(-n2cc(CO)nn2)cc1 [Compound 308, 3-[4-[4-(hydroxymethyl)triazol-1-yl]phenyl]-1-(3-methylisoxazol-4-yl)-1-[[3-(trifluoromethyl)phenyl]methyl]urea] | – | 500 to 1000 | –
16 | Cc1ccc(CN(C(=O)Nc2ccc(C#CCO)cc2)c2nccn2C)o1 [Compound 309, 3-[4-(3-hydroxyprop-ynyl)phenyl]-1-[(5-methyl-2-furyl)methyl]-1-(1-methylimidazol-2-yl)urea] | – | 100 to 500 | –
17 | N#Cc1ccc(NC(=O)N(Cc2nc3c(s2)COCC3)C2CCCC2)cc1 [Compound 310, 3-(4-cyanophenyl)-1-cyclopentyl-1-(6,7-dihydro-4H-pyrano[4,3-d]thiazol-2-ylmethyl)urea] | – | 1000 to 5000 | –
18 | O=C(Nc1ccc(Cl)cc1)N(Cc1nc2c(s1)COCC2)C1CCCC1 [Compound 311, 3-(4-chlorophenyl)-1-cyclopentyl-1-(6,7-dihydro-4H-pyrano[4,3-d]thiazol-2-ylmethyl)urea] | – | 100 to 500 | –

Row | SMILES | IC50 (TDO2 enzyme) [nM] | IC50 (SK-OV-3 cells) [nM] | IC50 (IDO1 enzyme) [nM]
19 | Cc1ccc(CN(C(=O)Nc2ccc3c(c2)CN(C)C3=O)C2CCCC2)o1 [Compound 312, 1-cyclopentyl-1-[(5-methyl-2-furyl)methyl]-3-(2-methyl-1-oxo-isoindolin-5-yl)urea] | – | 1000 to 5000 | –
20 | Cc1nocc1N(Cc1cccc(C#N)n1)C(=O)Nc1ccc(Cl)cc1 [Compound 313, 3-(4-chlorophenyl)-1-[(6-cyano-2-pyridyl)methyl]-1-(3-methylisoxazol-4-yl)urea] | – | 100 to 500 | –
21 | Cc1ccc(CN(C(=O)Nc2ccc(C#N)cc2)c2ncccc2C)o1 [Compound 314, 3-(4-cyanophenyl) [(5-methyl-2-furyl)methyl]-1-(3-methyl-2-pyridyl)urea] | – | 100 to 500 | –
22 | Cc1nocc1N(Cc1cccc(C(F)(F)F)c1)C(=O)Nc1ccc(C#CCO)cc1 [Compound 315, 3-[4-(3-hydroxyprop-1-ynyl)phenyl]-1-(3-methylisoxazol-4-yl)-1-[[3-(trifluoromethyl)phenyl]methyl]urea] | – | < 100 | –
23 | Cc1ncc(CN(C(=O)Nc2ccc(C#N)cc2)c2conc2C)o1 [Compound 316, 3-(4-cyanophenyl)-(3-methylisoxazol-4-yl)-1-[(2-methyloxazol-5-yl)methyl]urea] | – | > 5000 | –
24 | Cc1ccc(CN(C(=O)Nc2ccc(C3COC3)cc2)C2CCCC2)o1 [Compound 317, 1-cyclopentyl-1-[(5-methyl-2-furyl)methyl]-3-[4-(oxetan-3-yl)phenyl]urea] | – | 1000 to 5000 | –
25 | Cc1ccc(CN(C(=O)Nc2ccc(Cl)cc2)c2ncccc2C)o1 [Compound 318, 3-(4-chlorophenyl)-1-[(5-methyl-2-furyl)methyl]-1-(3-methyl-2-pyridyl)urea] | – | < 100 | –
26 | N#Cc1cccc(CN(C(=O)Nc2ccc(C#CCO)cc2)C2CCC2)n1 [Compound 319] | – | < 100 | –
27 | Cc1cn(-c2ccc(NC(=O)N(Cc3ccc(C)o3)C3CCCC3)cc2)nn1 [Compound 320, 1-cyclopentyl-1-[(5-methyl-2-furyl)methyl]-3-[4-(4-methyltriazol-1-yl)phenyl]urea] | – | 100 to 500 | –
28 | Cc1ncc(CN(C(=O)Nc2ccc(C#CCO)cc2)c2conc2C)o1 [Compound 321, 3-[4-(3-hydroxyprop-1-ynyl)phenyl]-1-(3-methylisoxazol-4-yl)-1-[(2-methyloxazol-5-yl)methyl]urea] | – | 1000 to 5000 | –
29 | Cc1ccc(CN(C(=O)Nc2ccc(C#N)cc2)c2nonc2C)o1 [Compound 322, 3-(4-cyanophenyl)-1-[(5-methyl-2-furyl)methyl]-1-(4-methyl-1,2,5-oxadiazol-3-yl)urea] | – | < 100 | –
30 | COc1cc(NC(=O)N(Cc2ccc(C)o2)C2CCCC2)ccc1-n1cc(CO)nn1 [Compound 323, 1-cyclopentyl-[4-[4-(hydroxymethyl)triazol-1-yl]-3-methoxy-phenyl]-1-[(5-methyl-2-furyl)methyl]urea] | – | 100 to 500 | –
31 | Cc1ccc(CN(C(=O)Nc2ccc(C#N)cc2)c2ncccn2)o1 [Compound 324, 3-(4-cyanophenyl)-1-[(5-methyl-2-furyl)methyl]-1-pyrimidin-2-yl-urea] | – | > 5000 | –
32 | Cc1nocc1N(CC1CCC2(CC1)COC2)C(=O)Nc1ccc(C#N)cc1 [Compound 325, 3-(4-cyanophenyl)-(3-methylisoxazol-4-yl)-1-(2-oxaspiro[3.5]nonan-7-ylmethyl)urea] | – | > 5000 | –
33 | Cc1nocc1N(CC1CCC2(CC1)COC2)C(=O)Nc1ccc(Cl)cc1 [Compound 326, 3-(4-chlorophenyl)-1-(3-methylisoxazol-4-yl)-1-(2-oxaspiro[3.5]nonan-7-ylmethyl)urea] | – | > 5000 | –
34 | Cc1ccc(CN(C(=O)Nc2ccc(Cl)cc2)c2ncccn2)o1 [Compound 327, 3-(4-chlorophenyl)-1-[(5-methyl-2-furyl)methyl]-1-pyrimidin-2-yl-urea] | – | 1000 to 5000 | –
35 | Cc1ccc(CN(C(=O)Nc2ccc(Cl)cc2)c2csnc2C)o1 [Compound 328, 3-(4-chlorophenyl)-1-[(5-methyl-2-furyl)methyl]-1-(3-methylisothiazol-4-yl)urea] | – | < 100 | –

Source: patent US20210238139A1, “MODULATORS OF TRYPTOPHAN CATABOLISM” (E-Therapeutics PLC, priority 2018, published 2021)
